Data: publication PMC8841437 (Clinical and Translational Science, 2021)

What was measured:
healthy participants = test: Safety and tolerability; type: in vivo, human
prothrombin time = test: Prothrombin time, ex vivo pharmacodynamics; type: in vivo, human; conditions: SAD and MAD panels; data not shown
[1] = system: activated partial thromboplastin time (aPTT); test: Activated partial thromboplastin time; type: in vivo, human
[2] = system: arterial and venous thrombosis; conditions: preclinical models of arterial and venous thrombosis; cited from earlier work
[3] = Urinary excretion of milvexian; type: in vivo, human
[4] = MAD panel 10, 200 mg q.d. fasted, n = 6
[5] = MAD panel 11, 500 mg q.d. fed, n = 6
[6] = MAD panel 12, 35 mg b.i.d. fasted, n = 6
[7] = MAD panel 13, 200 mg b.i.d. fasted, n = 6
[8] = MAD, all participants treated with milvexian, N = 42
[9] = all SAD and MAD dosing regimens

Structure (SMILES): C[C@@H]1CCC[C@H](n2cnc(-c3cc(Cl)ccc3-n3cc(Cl)nn3)cc2=O)c2cc(ccn2)-c2c(cnn2C(F)F)NC1=O [milvexian]
- Abdominal discomfort (TEAE) (healthy participants; [4]): 0 n (%)
- Abdominal pain (TEAE) (healthy participants; [4]): 1 (16.7) n (%)
- Any TEAE (healthy participants; [4]): 4 (66.7) n (%)
- Diarrhea (TEAE) (healthy participants; [4]): 1 (16.7) n (%)
- Dizziness (TEAE) (healthy participants; [4]): 0 n (%)
- Headache (TEAE) (healthy participants; [4]): 1 (16.7) n (%)
- Nausea (TEAE) (healthy participants; [4]): 2 (33.3) n (%)
- Oropharyngeal pain (TEAE) (healthy participants; [4]): 1 (16.7) n (%)
- Pain in extremity (TEAE) (healthy participants; [4]): 1 (16.7) n (%)
- Abdominal discomfort (TEAE) (healthy participants; [5]): 0 n (%)
- Abdominal pain (TEAE) (healthy participants; [5]): 0 n (%)
- Any TEAE (healthy participants; [5]): 3 (50.0) n (%)
- Diarrhea (TEAE) (healthy participants; [5]): 0 n (%)
- Dizziness (TEAE) (healthy participants; [5]): 0 n (%)
- Headache (TEAE) (healthy participants; [5]): 0 n (%)
- Nausea (TEAE) (healthy participants; [5]): 0 n (%)
- Oropharyngeal pain (TEAE) (healthy participants; [5]): 0 n (%)
- Pain in extremity (TEAE) (healthy participants; [5]): 0 n (%)
- Abdominal discomfort (TEAE) (healthy participants; [6]): 0 n (%)
- Abdominal pain (TEAE) (healthy participants; [6]): 0 n (%)
- Any TEAE (healthy participants; [6]): 2 (33.3) n (%)
- Diarrhea (TEAE) (healthy participants; [6]): 0 n (%)
- Dizziness (TEAE) (healthy participants; [6]): 1 (16.7) n (%)
- Headache (TEAE) (healthy participants; [6]): 0 n (%)
- Nausea (TEAE) (healthy participants; [6]): 0 n (%)
- Oropharyngeal pain (TEAE) (healthy participants; [6]): 0 n (%)
- Pain in extremity (TEAE) (healthy participants; [6]): 0 n (%)
- Abdominal discomfort (TEAE) (healthy participants; [7]): 0 n (%)
- Abdominal pain (TEAE) (healthy participants; [7]): 0 n (%)
- Any TEAE (healthy participants; [7]): 2 (33.3) n (%)
- Diarrhea (TEAE) (healthy participants; [7]): 0 n (%)
- Dizziness (TEAE) (healthy participants; [7]): 1 (16.7) n (%)
- Headache (TEAE) (healthy participants; [7]): 0 n (%)
- Nausea (TEAE) (healthy participants; [7]): 0 n (%)
- Oropharyngeal pain (TEAE) (healthy participants; [7]): 1 (16.7) n (%)
- Pain in extremity (TEAE) (healthy participants; [7]): 0 n (%)
- Diarrhea (TEAE) (healthy participants; MAD panels, milvexian): 11.9%
- Headache (TEAE) (healthy participants; MAD panels, milvexian): 14.3%
- participants reporting TEAEs (healthy participants; MAD panels, participants who received milvexian (21 participants)): 50.0%
- Abdominal discomfort (TEAE) (healthy participants; [8]): 2 (4.8) n (%)
- Abdominal pain (TEAE) (healthy participants; [8]): 2 (4.8) n (%)
- Any TEAE (healthy participants; [8]): 21 (50.0) n (%)
- Diarrhea (TEAE) (healthy participants; [8]): 5 (11.9) n (%)
- Dizziness (TEAE) (healthy participants; [8]): 3 (7.1) n (%)
- Headache (TEAE) (healthy participants; [8]): 6 (14.3) n (%)
- Nausea (TEAE) (healthy participants; [8]): 3 (7.1) n (%)
- Oropharyngeal pain (TEAE) (healthy participants; [8]): 2 (4.8) n (%)
- Pain in extremity (TEAE) (healthy participants; [8]): 2 (4.8) n (%)
- ECG abnormalities (healthy participants; SAD and MAD): no clinically significant ECG abnormalities
- incidence of laboratory and vital sign abnormalities vs placebo (healthy participants; SAD and MAD): no relevant differences
- participants reporting TEAEs (healthy participants; SAD panels, fasted participants who received milvexian (three participants)): 8.3%
- deaths or other SAEs (healthy participants; SAD up to 500 mg, MAD up to 200 mg b.i.d. or 500 mg q.d.): No deaths or other SAEs occurred
- Headache (TEAE) (healthy participants; SAD, 300 mg, fasted): 2 n
- nausea (TEAE) after a high-fat breakfast (healthy participants; SAD, 500-mg group, fed (one participant)): 16.7%
- clinically significant bleeding events (healthy participants; [9]): no clinically significant bleeding events
- severity of TEAEs (healthy participants; [9]): mild
- platelet count at next sampling time 2 days later (healthy participants; same participant, 35-mg b.i.d. group, within normal limits): 1.84e+11 L⁻¹
- Prothrombin time (prothrombin time): not increased at any time
- maximal mean percent increase from baseline in aPTT ([1]; fasted SAD panel 4 mg): 11.9%
- maximal mean percent increase from baseline in aPTT ([1]; fasted SAD panel 20 mg): 36.7%
- maximal mean percent increase from baseline in aPTT ([1]; fasted SAD panel 60 mg): 85.2%
- maximal mean percent increase from baseline in aPTT ([1]; fasted SAD panel 200 mg): 147.1%
- maximal mean percent increase from baseline in aPTT ([1]; fasted SAD panel 300 mg): 140.8%
- maximal mean percent increase from baseline in aPTT ([1]; fasted SAD panel 500 mg): 188.3%
- antithrombotic activity [2]: antithrombotic activity while preserving homeostasis
- mean total amount excreted in urine from 0 to 24 h postdose ([3]; MAD panel 9, 70 mg q.d., day 1): 14.8 % of the administered dose
- mean total amount excreted in urine from 0 to 24 h postdose ([3]; MAD panel 9, 70 mg q.d., day 14): 17.3 % of the administered dose
- mean total amount excreted in urine from 0 to 24 h postdose ([3]; MAD panel 10, 200 mg q.d., day 1): 10.4 % of the administered dose
- mean total amount excreted in urine from 0 to 24 h postdose ([3]; MAD panel 10, 200 mg q.d., day 14): 14.1 % of the administered dose
- Renal excretion ([3]; all panels): less than 20%
